The values that follow come from patent US7566718B2, “Amine-linked pyridyl and phenyl substituted piperazine-piperidines with CXCR3 antagonist activity” (Schering Corporation, priority 2005, dated 2009).

SMILES strings stand for the structures. pIC50: −log10 of the molar value. Bounds are passed on as bounds.

Usually pIC50 stands for the negative decadic logarithm of the IC50, by convention in mol/L.

The target of the first assay is T1, human CXCR3 (N-delta 4) (Homo sapiens, UniProt P49682).
T1 construct: CD8 leader (N); Flag tag; expressed in transfected cells; membrane preparation
T1 sequence (P49682 5-368 limits assumed): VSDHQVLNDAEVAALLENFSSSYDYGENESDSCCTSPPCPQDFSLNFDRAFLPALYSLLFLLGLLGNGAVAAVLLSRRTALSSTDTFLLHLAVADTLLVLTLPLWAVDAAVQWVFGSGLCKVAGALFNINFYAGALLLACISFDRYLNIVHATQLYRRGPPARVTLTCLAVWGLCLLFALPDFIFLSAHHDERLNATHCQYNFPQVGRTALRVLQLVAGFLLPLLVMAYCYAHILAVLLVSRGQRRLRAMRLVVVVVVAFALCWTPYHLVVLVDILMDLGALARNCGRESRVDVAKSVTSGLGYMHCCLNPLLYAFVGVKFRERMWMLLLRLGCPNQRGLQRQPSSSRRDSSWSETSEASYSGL
The assay can be described thus: Human CXCR3 (N-delta 4) scintillation proximity assay (SPA), [125I] IP-10 binding to Ba/F3-hCXCR3 membranes. The settings on record: IC50 rating; [125I] IP-10 displacement, human CXCR3; read-out: IC50. From the text:
The inventive compounds can readily be evaluated to determine activity at the CXCR3 receptors by known methods, such as, for example, development of a human CXCR3 (N-delta 4) Binding Assay.
The DNA encoding human CXCR3 was cloned by PCR using human genomic DNA (Promega, Madison, Wis.) as a template. The PCR primers were designed based on the published sequence of human orphan receptor GPR9 (1) with incorporated restriction sites, a Kozak consensus sequence, CD8 leader and Flag tag. The PCR product was subcloned into the mammalian expression vector pME18Sneo, a derivative of the SR-alpha expression vector (designated as pME18Sneo-hCXCR3 (N-delta 4).
IL-3-dependent mouse pro-B cells Ba/F3 were transfected by electroporation in 0.4 ml Dulbecco's PBS containing 4×10^6 cells with 20 μg of pME18Sneo-hCXCR3 (N-delta 4) plasmid DNA. Cells were pulsed at 400 Volts, 100 OHMs, 960 μFd. The transfected cells were under selection with 1 mg/ml G418 (Life Technologies, Gaithersburg, Md.). G418-resistant Ba/F3 clones were screened for CXCR3 expression by specific binding of [^125I] IP-10 (NEN Life Science Products, Boston, Mass.).
Ba/F3 cells expressing human CXCR3 (N-delta 4) were pelleted and resuspended in the lysis buffer containing 10 mM HEPES, pH 7.5 and Complete® protease inhibitors (1 tablet per 100 ml) (Boehringer Mannheim, Indianapolis, Ind.) at a cell density of 20×10^6 cells per ml. After 5 minute incubation on ice, cells were transferred to 4639 cell disruption bomb (Parr Instrument, Moline, Ill.) and applied with 1,500 psi of nitrogen for 30 minutes on ice. Large cellular debris was removed by centrifugation at 1,000×g. Cell membrane in the supernatant was sedimented at 100,000×g. The membrane was resuspended in the lysis buffer supplemented with 10% sucrose and stored at −80° C. Total protein concentration of the membrane was determined by BCA method from Pierce (Rockford, Ill.).
Human CXCR3 (N-Delta 4) Scintillation Proximity Assay (SPA):
For each assay point, 2 μg of membrane was preincubated for 1 hr with 300 μg wheat germ agglutinin (WGA) coated SPA beads (Amersham, Arlington Heights, Ill.) in the binding buffer (50 mM HEPES, 1 mM CaCl2, 5 mM MgCl2, 125 mM NaCl, 0.002% NaN3, 1.0% BSA) at room temperature. The beads were spun down, washed once, resuspended in the binding buffer and transferred to a 96-well Isoplate (Wallac, Gaithersburg, Md.). 25 pM of [^125I] IP-10 with tested compounds in a series of titration were added to start the reaction. After 3 hr reaction at room temperature, the amount of [^125I] IP-10 bound to the SPA beads was determined with a Wallac 1450 Microbeta counter.
On the technique in general: In a scintillation proximity assay essentially only radioactivity close to the scintillant gives light.
Turning to `CC[C@H]1CN(c2ncc(NS(C)(=O)=O)cc2Cl)CCN1C1CCN(Cc2ccc(Cl)cc2OC)CC1` [Compound 1], the pIC50 is over 7.60.

For `CC[C@H]1CN(c2ncc(NS(N)(=O)=O)cc2Cl)CCN1C1CCN(Cc2ccc(Cl)cc2F)CC1` [Compound 2], the pIC50 is over 7.60.

Take `CC[C@H]1CN(c2ncc(NS(N)(=O)=O)cc2Cl)CCN1C1CCN(C(CO)c2ccc(Cl)cc2)CC1` (stereo partly shown) [Compound 3]: the pIC50 is over 7.60.

Regarding `CC[C@H]1CN(c2ncc(NS(C)(=O)=O)cc2Cl)CCN1C1CCN([C@H](CO)c2ccc(Cl)cc2)CC1` [Compound 4], the pIC50 is over 7.60.

For `CC[C@H]1CN(c2ncc(NS(C)(=O)=O)cc2Cl)CCN1C1CCN(Cc2ccc(Br)cc2)CC1` [Compound 5], the pIC50 was over 7.60.

In the case of `CC[C@H]1CN(c2ncc(NS(C)(=O)=O)cc2Cl)CCN1C1CCN(Cc2ccc(Cl)cc2)CC1` [Compound 6], the pIC50 was over 7.60.

For the compound `CC[C@H]1CN(c2ncc(NS(C)(=O)=O)cc2Cl)CCN1C1CCN(Cc2ccc(Cl)cc2F)CC1` [Compound 7], the pIC50 is over 7.60.

On to `CC[C@H]1CN(c2ncc(NS(C)(=O)=O)cc2Cl)CCN1C1CCN(Cc2ccc(Br)cc2F)CC1` [Compound 8], for which the pIC50 is over 7.60.

As to `CC[C@H]1CN(c2ncc(NS(C)(=O)=O)cc2Cl)CCN1C1CCN(Cc2ccc(Cl)cc2N)CC1` [Compound 9], the pIC50 was over 7.60.

For the compound `CC[C@H]1CN(c2ncc(NS(C)(=O)=O)cc2Cl)CCN1C1CCN(Cc2ccc(OC(F)(F)F)cc2)CC1` [Compound 10], the pIC50 was over 7.60.

In the case of `CC[C@H]1CN(c2ncc(NS(C)(=O)=O)cc2Cl)CCN1C1CCN(C(CO)c2ccc(Cl)cc2)CC1` (stereo partly shown) [Compound 11], the pIC50 is over 7.60.

On to `CC[C@H]1CN(c2ncc(NS(C)(=O)=O)cc2Cl)CCN1C1CCN(C(C(N)=O)c2ccc(Cl)cc2)CC1` (stereo partly shown) [Compound 12], for which the pIC50 was over 7.60.

For `CC[C@H]1CN(c2ncc(NS(C)(=O)=O)cc2Cl)CCN1C1CCN(Cc2ccc(OC(F)F)cc2)CC1` [Compound 13], the pIC50 was over 7.60.

Consider `CC[C@H]1CN(c2ncc(NS(C)(=O)=O)cc2Cl)CCN1C1CCN(Cc2ccc(Cl)cc2NC)CC1` [Compound 14], for which the pIC50 was over 7.60.

As for `CC[C@H]1CN(c2ncc(NS(=O)(=O)CC)cc2Cl)CCN1C1CCN(C(N)c2ccc(Cl)cc2F)CC1` (stereo partly shown) [Compound 15], the pIC50 is over 7.60.

Turning to `CC[C@H]1CN(c2ncc(NS(N)(=O)=O)cc2Cl)CCN1C1CCN([C@H](C(=O)OC)c2ccc(Cl)cc2)CC1` [Compound 16], the pIC50 was over 7.60.

Regarding `CC[C@H]1CN(c2ncc(NS(=O)(=O)N(C)C)cc2Cl)CCN1C1CCN(Cc2ccc(Cl)cc2F)CC1` [Compound 17], the pIC50 was over 7.60.

Take `CC[C@H]1CN(c2ncc(NS(C)(=O)=O)cc2Cl)CCN1C1CCN(Cc2ccc(OC)cc2OC)CC1` [Compound 18]: the pIC50 was over 7.60.

With `CC[C@H]1CN(c2ncc(NS(C)(=O)=O)cc2Cl)CCN1C1CCN(Cc2ccc(C)cc2)CC1` [Compound 19], the pIC50 is over 7.60.

For `CC[C@H]1CN(c2ncc(NS(C)(=O)=O)cc2Cl)CCN1C1CCN(Cc2ccc(C)cc2C)CC1` [Compound 20], the negative logarithm of the IC50 (pIC50) was over 7.60.

As to `CC[C@H]1CN(c2ncc(NS(C)(=O)=O)cc2Cl)CCN1C1CCN(Cc2ccc(F)c(F)c2)CC1` [Compound 21], the pIC50 was over 7.60.

For the compound `CC[C@H]1CN(c2ncc(NS(=O)(=O)C3CC3)cc2Cl)CCN1C1CCN(Cc2ccc(Cl)cc2F)CC1` [Compound 22], the pIC50 was over 7.60.

As for `CC[C@H]1CN(c2ncc(NS(C)(=O)=O)cc2Cl)CCN1C1CCN(Cc2ccc(Cl)cc2C#N)CC1` [Compound 23], the pIC50 is over 7.60.

On to `CC[C@H]1CN(c2ncc(NS(C)(=O)=O)cc2Cl)CCN1C1CCN(C(=O)c2ccc(Cl)cc2N)CC1` [Compound 24], for which the pIC50 was 7.00 to 7.60.

Turning to `CC[C@H]1CN(c2ncc(NS(C)(=O)=O)cc2Cl)CCN1C1CCN(Cc2ccc(F)cc2)CC1` [Compound 25], the pIC50 is 7.00 to 7.60.

Consider `CC[C@H]1CN(c2ncc(NS(C)(=O)=O)cc2Cl)CCN1C1CCN(Cc2ccc(Cl)s2)CC1` [Compound 26], for which the pIC50 was 7.00 to 7.60.

As for `CC[C@H]1CN(c2ncc(NS(C)(=O)=O)cc2Cl)CCN1C1CCN(C(C(=O)OC)c2ccc(Cl)cc2)CC1` (stereo partly shown) [Compound 27], the pIC50 is 7.00 to 7.60.

On to `CC[C@H]1CN(c2ncc(NS(C)(=O)=O)cc2Cl)CCN1C1CCN(Cc2ccc(Cl)cc2[N+](=O)[O-])CC1` [Compound 28], for which the pIC50 was 7.00 to 7.60.

For `CC[C@H]1CN(c2ncc(NS(=O)(=O)C(C)C)cc2Cl)CCN1C1CCN(Cc2ccc(Cl)cc2F)CC1` [Compound 29], the pIC50 is 7.00 to 7.60.

Take `CC[C@H]1CN(c2ncc(NS(C)(=O)=O)cc2Cl)CCN1C1CCN(Cc2ccc(Cl)cc2C(=O)OC)CC1` [Compound 30]: the pIC50 was 7.00 to 7.60.

With `CC[C@H]1CN(c2ncc(NS(C)(=O)=O)cc2Cl)CCN1C1CCN(C(=O)c2ccc(Cl)nc2N)CC1` [Compound 31], the pIC50 was 7.00 to 7.60.

Regarding `C[C@H]1CN(c2ncc(NS(C)(=O)=O)cc2Cl)CCN1C1CCN(Cc2ccc(Cl)cc2)CC1` [Compound 32], the pIC50 was 7.00 to 7.60.

In the case of `CC[C@H]1CN(c2ncc(NS(N)(=O)=O)cc2Cl)CCN1C1CCN(C(=O)c2ccc(Cl)cc2)CC1` [Compound 33], the pIC50 was 7.00 to 7.60.

Regarding `CC[C@H]1CN(c2ncc(NS(C)(=O)=O)cc2Cl)CCN1C1CCN(Cc2ccc(Cl)cc2O)CC1` [Compound 34], the pIC50 was 7.00 to 7.60.

For `CC[C@H]1CN(c2ncc(NS(N)(=O)=O)cc2Cl)CCN1C1CCN([C@H](C(N)=O)c2ccc(Cl)cc2)CC1` [Compound 35], the pIC50 was 7.00 to 7.60.

Consider `CC[C@H]1CN(c2ncc(NS(C)(=O)=O)cc2Cl)CCN1C1CCN(Cc2ccc(Cl)cc2-c2nnn[nH]2)CC1` [Compound 36], for which the pIC50 is 7.00 to 7.60.

`C[C@H]1CN(c2ncc(NS(C)(=O)=O)cc2Cl)CCN1C1CCN(Cc2ccc(OC(F)(F)F)cc2)CC1` [Compound 38]: the pIC50 is 7.00 to 7.60.

Take `CC[C@H]1CN(c2ncc(NS(C)(=O)=O)cc2Cl)CCN1C1CCN(C(C(=O)OC)c2ccc(Cl)cc2)CC1` (stereo partly shown) [Compound 39]: the pIC50 was 7.00 to 7.60.

Turning to `CCC(=O)[C@@H](c1ccc(Cl)cc1)N1CCC(N2CCN(c3ncc(NS(N)(=O)=O)cc3Cl)C[C@@H]2CC)CC1` [Compound 41], the pIC50 was under 7.00.

Regarding `CC[C@H]1CN(c2ncc(NS(C)(=O)=O)cc2Cl)CCN1C1CCN(Cc2ccc(C(=O)OC)cn2)CC1` [Compound 42], the pIC50 was under 7.00.

As for `CC[C@H]1CN(c2ncc(NS(C)(=O)=O)cc2Cl)CCN1C1CCN(Cc2cc(C)c(C)s2)CC1` [Compound 43], the pIC50 is under 7.00.

On to `CC[C@H]1CN(c2ncc(NS(C)(=O)=O)cc2Cl)CCN1C1CCN(Cc2cc(Br)cs2)CC1` [Compound 44], for which the pIC50 was under 7.00.

Turning to `CC[C@H]1CN(c2ncc(NS(C)(=O)=O)cc2Cl)CCN1C1CCN(Cc2ccc(N(C)C)cc2)CC1` [Compound 45], the pIC50 was under 7.00.

Consider `CC[C@H]1CN(c2ncc(NS(=O)(=O)c3ccc(Cl)cc3)cc2Cl)CCN1C1CCN(Cc2ccc(Cl)cc2F)CC1` [Compound 46], for which the pIC50 was under 7.00.

For the compound `CC[C@H]1CN(c2ncc(NS(C)(=O)=O)cc2Cl)CCN1C1CCN(Cc2c(F)cc(F)cc2F)CC1` [Compound 47], the pIC50 was under 7.00.

In the case of `CC[C@H]1CN(c2ncc(NS(C)(=O)=O)cc2Cl)CCN1C1CCN(Cc2cc3ccccc3o2)CC1` [Compound 48], the pIC50 is under 7.00.

`Cc1ccc(CN2CCC(N3CCN(c4ncc(NS(C)(=O)=O)cc4Cl)C[C@@H]3C)CC2)c(C)c1` [Compound 49]: the pIC50 is under 7.00.

With `C[C@@H]1CN(C2CCN(Cc3ccc(Cl)cc3F)CC2)[C@@H](C)CN1c1ncc(NS(C)(=O)=O)cc1Cl` [Compound 50], the pIC50 was under 7.00.

Still in this assay, the particulars now being: value given in the text as example; read-out: IC50 value.
With `CC[C@H]1CN(c2ncc(NS(C)(=O)=O)cc2Cl)CCN1C1CCN(Cc2ccc(Cl)cc2OC)CC1` [Compound 1], the pIC50 is 9.10.
